In patent US10155788B2, “Cationic steroidal antimicrobial prodrug compositions and uses thereof” (BRIGHAM YOUNG UNIVERSITY, priority 2014, dated 2018):
Converted amounts (≈) assume the structure as drawn.

Key:
[1] = system: ATCC 25923 strain of staphylococcus aureus; experiment: Minimum inhibitory concentration against staph A; assay type: cell-based; settings: ATCC25923; staphylococcus aureus ATCC 25923
Method: The pharmacological analysis of the methane sulfonate prodrug of CSA-13 (CSA-13 MS) versus the free base CSA-13 compound was assessed for their antimicrobial properties against the ATCC 25923 strain of staphylococcus aureus (hereinafter “staph A”).

[2] = system: C57BL/6 female mice; experiment: Maximum Tolerated Dose study of CSA-192 MS, intravenous, in mice; assay type: in vivo; settings: for mortality and abnormal clinical signs: 7 days observation
Excerpt: The objective of this study was to determine the Maximum Tolerated Dose (MTD) of CSA-192 MS following intravenous (i.v.) administration at various dose levels in C57BL/6 female mice. FIG. 2 is a graph showing CSA-192 MS Kinetics.
Immunocompetent C57BL/6 female mice weighing 16 to 20 g were obtained from the University of Sevilla's facility. The number of animals that were selected for use in this study was considered to be the minimum requirement to meet rational scientific endpoints.
One the first day of the study, mice were subjected to randomization and allocated to different groups, so that each group (G) contains 6 females. Each cage housed 6 mice. Each cage was identified by a cage card, with details like study item, species, strain, sex, number of animals, date, dose, and investigator name.
The study was conducted at four different dose levels. On day 1 of treatment all the animals in G1, G2, G3, and G4 groups were administered with CSA-192 MS at 4, 8, 16, and 32 mg/kg based on their body weight. Dose volumes were maintained at 0.2 mL for G1, G2, and G3. The dose volume for G4 was 0.32 mL.
More particularly, the test item was administered by intravenous route, at dose concentration of 4 mg/kg body weight for G1, 8 mg/kg body weight for G2, 16 mg/kg body weight for G3, and 32 mg/kg body weight G4 groups, respectively. Dose volumes were maintained at 0.2 mL for G1, G2, and G3. For group G4 the dose volume was 0.32 mL.
The first day they were checked immediately after dose administration, at 30 min, 1 hour, and every 4 hours, the following days twice a day. Mice were sacrificed on day 7 of the study period.

CCCCCCCCNCCC[C@@H](C)[C@H]1CC[C@H]2[C@@H]3[C@H](OCCCN)C[C@@H]4C[C@H](OCCCN)CC[C@]4(C)[C@H]3C[C@H](OCCCN)[C@]12C [CSA-13]
MIC [1]: 1.6 µg/mL (≈ 2.36 µM)

CCCCCCCCNC(=O)CC[C@@H](C)[C@H]1CC[C@H]2[C@@H]3[C@H](OCCCN)C[C@@H]4C[C@H](OCCCN)CC[C@]4(C)[C@H]3C[C@H](OCCCN)[C@]12C [CSA-192 MS]
mortality and abnormal clinical signs ([2]; 4.0 mg/kg body weight (G1), intravenously): no incidences of mortality and abnormal clinical signs
mortality and abnormal clinical signs ([2]; 8.0 mg/kg body weight (G2), intravenously): no incidences of mortality and abnormal clinical signs
clinical signs ([2]; 16.0 mg/kg body weight (G3), intravenously, immediately after administration, disappeared after an hour, rest of G3 without signs): one animal showed signs of somnolence
mortality and abnormal clinical signs ([2]; 32.0 mg/kg body weight (G4), intravenously): no incidences of mortality and abnormal clinical signs
Clinical observations/No of animals per group ([2]; G1 4 mg/Kg i.v., Day 1): 0/6
No of animals found dead/No. of animals per group ([2]; G1 4 mg/Kg i.v., Day 1): 0/6
Clinical observations/No of animals per group ([2]; G1 4 mg/Kg i.v., Day 2): 0/6
No of animals found dead/No. of animals per group ([2]; G1 4 mg/Kg i.v., Day 2): 0/6
Clinical observations/No of animals per group ([2]; G1 4 mg/Kg i.v., Day 3): 0/6
No of animals found dead/No. of animals per group ([2]; G1 4 mg/Kg i.v., Day 3): 0/6
Clinical observations/No of animals per group ([2]; G1 4 mg/Kg i.v., Day 4): 0/6
No of animals found dead/No. of animals per group ([2]; G1 4 mg/Kg i.v., Day 4): 0/6
Clinical observations/No of animals per group ([2]; G1 4 mg/Kg i.v., Day 5): 0/6
No of animals found dead/No. of animals per group ([2]; G1 4 mg/Kg i.v., Day 5): 0/6
Clinical observations/No of animals per group ([2]; G1 4 mg/Kg i.v., Day 6): 0/6
No of animals found dead/No. of animals per group ([2]; G1 4 mg/Kg i.v., Day 6): 0/6
Clinical observations/No of animals per group ([2]; G1 4 mg/Kg i.v., Day 7): 0/6
No of animals found dead/No. of animals per group ([2]; G1 4 mg/Kg i.v., Day 7): 0/6
Clinical observations/No of animals per group ([2]; G2 8 mg/kg i.v., Day 1): 0/6
No of animals found dead/No. of animals per group ([2]; G2 8 mg/kg i.v., Day 1): 0/6
Clinical observations/No of animals per group ([2]; G2 8 mg/kg i.v., Day 2): 0/6
No of animals found dead/No. of animals per group ([2]; G2 8 mg/kg i.v., Day 2): 0/6
Clinical observations/No of animals per group ([2]; G2 8 mg/kg i.v., Day 3): 0/6
No of animals found dead/No. of animals per group ([2]; G2 8 mg/kg i.v., Day 3): 0/6
Clinical observations/No of animals per group ([2]; G2 8 mg/kg i.v., Day 4): 0/6
No of animals found dead/No. of animals per group ([2]; G2 8 mg/kg i.v., Day 4): 0/6
Clinical observations/No of animals per group ([2]; G2 8 mg/kg i.v., Day 5): 0/6
No of animals found dead/No. of animals per group ([2]; G2 8 mg/kg i.v., Day 5): 0/6
Clinical observations/No of animals per group ([2]; G2 8 mg/kg i.v., Day 6): 0/6
No of animals found dead/No. of animals per group ([2]; G2 8 mg/kg i.v., Day 6): 0/6
Clinical observations/No of animals per group ([2]; G2 8 mg/kg i.v., Day 7): 0/6
No of animals found dead/No. of animals per group ([2]; G2 8 mg/kg i.v., Day 7): 0/6
Clinical observations/No of animals per group ([2]; G3 16 mg/kg i.v., Day 1): 1/6
No of animals found dead/No. of animals per group ([2]; G3 16 mg/kg i.v., Day 1): 0/6
Clinical observations/No of animals per group ([2]; G3 16 mg/kg i.v., Day 2): 0/6
No of animals found dead/No. of animals per group ([2]; G3 16 mg/kg i.v., Day 2): 0/6
Clinical observations/No of animals per group ([2]; G3 16 mg/kg i.v., Day 3): 0/6
No of animals found dead/No. of animals per group ([2]; G3 16 mg/kg i.v., Day 3): 0/6
Clinical observations/No of animals per group ([2]; G3 16 mg/kg i.v., Day 4): 0/6
No of animals found dead/No. of animals per group ([2]; G3 16 mg/kg i.v., Day 4): 0/6
Clinical observations/No of animals per group ([2]; G3 16 mg/kg i.v., Day 5): 0/6
No of animals found dead/No. of animals per group ([2]; G3 16 mg/kg i.v., Day 5): 0/6
Clinical observations/No of animals per group ([2]; G3 16 mg/kg i.v., Day 6): 0/6
No of animals found dead/No. of animals per group ([2]; G3 16 mg/kg i.v., Day 6): 0/6
Clinical observations/No of animals per group ([2]; G3 16 mg/kg i.v., Day 7): 0/6
No of animals found dead/No. of animals per group ([2]; G3 16 mg/kg i.v., Day 7): 0/6
Clinical observations/No of animals per group ([2]; G4 32 mg/kg i.v., Day 1): 0/6
No of animals found dead/No. of animals per group ([2]; G4 32 mg/kg i.v., Day 1): 0/6
Clinical observations/No of animals per group ([2]; G4 32 mg/kg i.v., Day 2): 0/6
No of animals found dead/No. of animals per group ([2]; G4 32 mg/kg i.v., Day 2): 0/6
Clinical observations/No of animals per group ([2]; G4 32 mg/kg i.v., Day 3): 0/6
No of animals found dead/No. of animals per group ([2]; G4 32 mg/kg i.v., Day 3): 0/6
Clinical observations/No of animals per group ([2]; G4 32 mg/kg i.v., Day 4): 0/6
No of animals found dead/No. of animals per group ([2]; G4 32 mg/kg i.v., Day 4): 0/6
Clinical observations/No of animals per group ([2]; G4 32 mg/kg i.v., Day 5): 0/6
No of animals found dead/No. of animals per group ([2]; G4 32 mg/kg i.v., Day 5): 0/6
Clinical observations/No of animals per group ([2]; G4 32 mg/kg i.v., Day 6): 0/6
No of animals found dead/No. of animals per group ([2]; G4 32 mg/kg i.v., Day 6): 0/6
Clinical observations/No of animals per group ([2]; G4 32 mg/kg i.v., Day 7): 0/6
No of animals found dead/No. of animals per group ([2]; G4 32 mg/kg i.v., Day 7): 0/6
treatment related change in body weight ([2]; all groups (4, 8, 16, 32 mg/kg i.v.)): No treatment related change in body weight was observed
mortality ([2]; any of the groups (4, 8, 16, 32 mg/kg i.v.), 7 days): no mortality was observed
